In brackets after ≈: the same amount, converted by molar mass.
assay: Inhibitory concentration against human T-cell leukemic cell line ([…]) in vitro; assay type: functional

Structure (SMILES) | IC50
CCC(=O)C[C@@H]1CN(C=O)CCc2c([nH]c3ccccc23)[C@@](C(=O)OC)(c2cc3c(cc2OC)N(C)[C@H]2[C@](O)(C(=O)OC)[C@H](OC(C)=O)[C@]4(CC)C=CCN5CC[C@]32[C@@H]54)C1 [CATHARININE] | 7.7 µg/mL (≈ 9.33 µM)
CC[C@]1(O)C[C@@H]2CN(CCc3c([nH]c4ccccc34)[C@@](C(=O)OC)(c3cc4c(cc3OC)N(C)[C@H]3[C@@](O)(C(=O)OC)[C@H](OC(C)=O)[C@]5(CC)C=CCN6CC[C@]43[C@@H]65)C2)C1 [VINBLASTINE] | 0.1 µg/mL (≈ 0.123 µM)
CC[C@]1(O)C[C@H]2CN(CCc3c([nH]c4ccccc34)[C@@](C(=O)OC)(c3cc4c(cc3OC)N(C=O)[C@H]3[C@@](O)(C(=O)OC)[C@H](OC(C)=O)[C@]5(CC)C=CCN6CC[C@]43[C@@H]65)C2)C1 [VINCRISTINE] | 0.025 µg/mL (≈ 0.0303 µM)
CC[C@]12CN3CCc4c([nH]c5ccccc45)[C@@](C(=O)OC)(c4cc5c(cc4OC)N(C)[C@H]4[C@@](O)(C(=O)OC)[C@H](OC(C)=O)[C@]6(CC)C=CCN7CC[C@]54[C@@H]76)C[C@@H](C3)[C@H]1O2.CC[C@]12CN3CCc4c([nH]c5ccccc45)[C@@](C(=O)OC)(c4cc5c(cc4OC)N(C)[C@H]4[C@@](O)(C(=O)OC)[C@H](OC(C)=O)[C@]6(CC)C=CCN7CC[C@]54[C@@H]76)C[C@@H](C3)[C@H]1O2.O=S(=O)(O)O [VINLEUROSINE SULFATE] | 0.4 µg/mL

Source: ChEMBL document CHEMBL1124428, “In vitro metabolic transformations of vinblastine: oxidations catalyzed by peroxidase” (J Med Chem, 1989)
